We go through six compounds from patent US12319649B1, “Cannabidiolic acid cocrystals” (Manoira Corporation, priority 2024, dated 2025).

Data set [1] in a line: Solid-state stability study at 40° C. and 75% relative humidity. It counts as physicochemical. The conditions noted are these: 40° C./75% RH, sealed container; for Storage stability compared to pure cannabidiolic acid: up to 4 weeks. The protocol: The physical stability of the cannabidiolic acid cocrystals was examined with respect to solid form conversion or signs of decomposition or decarboxylation, and to compare the results with those for pure cannabidiolic acid. In order to assess the storage potential of the cocrystals within a reasonable timeframe standard accelerated storage conditions of 40° C. and 75% relative humidity were chosen. 50 mg each of the 1:1 cannabidiolic acid L-phenylalanine, 1:1 cannabidiolic acid vanillin, 1:1 cannabidiolic acid betaine, 1:1 cannabidiolic acid ethyl maltol, 1:1 cannabidiolic acid L-proline and cannabidiolic acid were separately placed in a sealed container at 40° C. and 75% relative humidity and monitored periodically over a 4-week time period. All samples that had not decomposed and remained as solids were analyzed by XRPD after this time to observe any potential form changes. At the start of the study, all cocrystal samples were white solids while the pure cannabidiolic acid was an off-white solid.

Data set [2] has as its target T1, 5-HT1A (Rattus norvegicus, UniProt P19327).
T1 sequence (P19327 1-422): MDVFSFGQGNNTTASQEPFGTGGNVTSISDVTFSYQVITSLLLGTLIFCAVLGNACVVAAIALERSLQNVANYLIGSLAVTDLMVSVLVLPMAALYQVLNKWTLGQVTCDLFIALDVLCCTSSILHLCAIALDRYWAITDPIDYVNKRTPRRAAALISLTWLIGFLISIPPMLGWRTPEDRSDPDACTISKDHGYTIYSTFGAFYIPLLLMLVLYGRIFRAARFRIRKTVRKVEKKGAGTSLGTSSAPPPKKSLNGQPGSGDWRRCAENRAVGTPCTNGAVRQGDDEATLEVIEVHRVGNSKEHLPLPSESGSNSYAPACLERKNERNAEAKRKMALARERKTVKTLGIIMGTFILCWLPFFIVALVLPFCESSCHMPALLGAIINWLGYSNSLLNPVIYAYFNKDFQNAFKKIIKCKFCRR
Particulars: higher affinity than CBD; Bolognini et al. 2012; cited from earlier work.

Data set [3] relates to nausea and vomiting in a rat model. The conditions noted are these: via 5-HT1A activation mechanism, Bolognini et al. 2012; cited from earlier work.
In data set [4] the target is T2, COX-2 (Homo sapiens, UniProt P35354).
T2 sequence (P35354 18-604): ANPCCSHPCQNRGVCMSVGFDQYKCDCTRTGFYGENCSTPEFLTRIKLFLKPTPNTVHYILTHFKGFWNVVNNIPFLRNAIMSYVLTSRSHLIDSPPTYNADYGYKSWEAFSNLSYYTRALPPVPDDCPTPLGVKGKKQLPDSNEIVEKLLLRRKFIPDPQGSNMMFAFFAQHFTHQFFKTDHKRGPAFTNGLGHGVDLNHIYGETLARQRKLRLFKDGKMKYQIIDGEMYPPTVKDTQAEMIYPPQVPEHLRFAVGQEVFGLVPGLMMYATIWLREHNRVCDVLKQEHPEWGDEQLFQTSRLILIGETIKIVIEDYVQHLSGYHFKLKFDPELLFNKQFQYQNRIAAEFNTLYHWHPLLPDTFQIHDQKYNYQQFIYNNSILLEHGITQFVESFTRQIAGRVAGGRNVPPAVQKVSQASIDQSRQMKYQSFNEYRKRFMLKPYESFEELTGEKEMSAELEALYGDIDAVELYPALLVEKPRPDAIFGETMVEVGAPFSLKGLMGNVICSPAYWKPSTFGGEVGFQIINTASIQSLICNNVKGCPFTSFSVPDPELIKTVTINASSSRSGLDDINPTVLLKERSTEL
The conditions noted are these: Takeda 2008; cited from earlier work.

The conditions of data set [5]: WO2017025712; cited from earlier work.

Where only a bound is given, the exact number is not on record here.

With `C=C(C)[C@@H]1CCC(C)=C[C@H]1c1c(O)cc(CCCCC)c(C(=O)O)c1O.C[N+](C)(C)CC(=O)[O-]` [1:1 CBDA Betaine Cocrystal, 1:1 cannabidiolic acid betaine cocrystal], the “XRPD (solid form change)” value in data set [1] (4 weeks) is on record as “No change”; in data set [1] (4 weeks, listed as 1:1 cannabidiolic acid betaine) it was “no solid form conversion or dissociation had occurred”. In addition, the Appearance entry in data set [1] (4 weeks, white solid at start) is “No change”; in data set [1] (4 weeks, white solid at start, listed as 1:1 cannabidiolic acid betaine), “remained unchanged as white solids”. For the same compound, the “Storage stability compared to pure cannabidiolic acid” value in data set [1] is reported as “significantly superior storage properties compared to pure CBDA”.
For `C=C(C)[C@@H]1CCC(C)=C[C@H]1c1c(O)cc(CCCCC)c(C(=O)O)c1O.CCc1occc(=O)c1O` [1:1 CBDA Ethyl Maltol Cocrystal, 1:1 cannabidiolic acid ethyl maltol cocrystal], in data set [1], the “Time to conversion into dark brown liquid” value is given as not above 2 weeks and the “Storage stability compared to pure cannabidiolic acid” value is listed as “more stable than pure cannabidiolic acid”. Besides, in data set [1] (2 weeks, white solid at start), the Appearance result is reported as “Dark brown liquid”.
As to `C=C(C)C1CCC(C)=CC1c1c(O)cc(CCCCC)c(C(=O)O)c1O.O=C(O)C1CCCN1` [1:1 CBDA L-Proline Cocrystal, 1:1 cannabidiolic acid L-proline cocrystal], the “XRPD (solid form change)” value in data set [1] (4 weeks) is “No change”; in data set [1] (4 weeks, listed as 1:1 cannabidiolic acid L-proline cocrystal) it was “same crystalline structure”. For the same compound, the Appearance result in data set [1] (4 weeks, white solid at start) is “tan solid”; in data set [1] (4 weeks, white solid at start, listed as 1:1 cannabidiolic acid L-proline cocrystal), “tanned colored solid”.
Turning to `C=C(C)[C@@H]1CCC(C)=C[C@H]1c1c(O)cc(CCCCC)c(C(=O)O)c1O.N[C@@H](Cc1ccccc1)C(=O)O` [1:1 CBDA Phenylalanine Cocrystal, 1:1 cannabidiolic acid L-phenylalanine cocrystal], the “XRPD (solid form change)” value in data set [1] (4 weeks) is listed as “No change”; in data set [1] (4 weeks, listed as 1:1 cannabidiolic acid L-phenylalanine) it was “no solid form conversion or dissociation had occurred”. The Appearance entry in data set [1] (4 weeks, white solid at start) is “No change”; in data set [1] (4 weeks, white solid at start, listed as 1:1 cannabidiolic acid L-phenylalanine), “remained unchanged as white solids”. The “Storage stability compared to pure cannabidiolic acid” value in data set [1] is “significantly superior storage properties compared to pure CBDA”.
With `C=C(C)[C@@H]1CCC(C)=C[C@H]1c1c(O)cc(CCCCC)c(C(=O)O)c1O.COc1cc(C=O)ccc1O` [1:1 CBDA Vanillin Cocrystal, 1:1 cannabidiolic acid vanillin cocrystal], in data set [1], the “Time to conversion into dark brown liquid” value is reported as not above 3 weeks and the “Storage stability compared to pure cannabidiolic acid” value was “more stable than pure cannabidiolic acid”. In addition, the Appearance entry in data set [1] (3 weeks, white solid at start) is reported as “Dark brown liquid”.
`C=C(C)[C@@H]1CCC(C)=C[C@H]1c1c(O)cc(CCCCC)c(C(=O)O)c1O` [Pure CBDA, cannabidiolic acid]: the “Affinity for 5-HT1A relative to CBD” value in data set [2] was 100 fold. In data set [3], the “Inhibition of nausea and vomiting, potency versus CBD” value is recorded as “significantly greater potency than CBD”. Further, the “Inhibition of COX-2 activity” value in data set [4] was “selectively inhibit COX-2 activity”. Besides, in data set [1], the “Time to deliquescence to a liquid” value is “Within one hour”. The Appearance result in data set [1] (2 hours, off-white solid at start) is “Dark brown liquid”; in data set [1] (2 hours, off-white solid at start, listed as pure CBDA), “liquid that within a further hour had turned dark brown in color”. The “Efficacy in treating epilepsy versus CBD” value in data set [5] was “more effective than CBD”.
